The record followed here is patent publication US20260158017A1, “KIF18A INHIBITOR” (WIGEN BIOMEDICINE TECHNOLOGY (SHANGHAI) CO., LTD., priority 2021, published 2026).

The structures appear in SMILES notation.

In the assay the target is T1, Recombinant human KIF18A (1-467His-tagged) protein (Homo sapiens, UniProt Q8NI77).
T1 construct: Recombinant human KIF18A (1-467His-tagged) protein; His; made in house
T1 sequence (Q8NI77 1-467): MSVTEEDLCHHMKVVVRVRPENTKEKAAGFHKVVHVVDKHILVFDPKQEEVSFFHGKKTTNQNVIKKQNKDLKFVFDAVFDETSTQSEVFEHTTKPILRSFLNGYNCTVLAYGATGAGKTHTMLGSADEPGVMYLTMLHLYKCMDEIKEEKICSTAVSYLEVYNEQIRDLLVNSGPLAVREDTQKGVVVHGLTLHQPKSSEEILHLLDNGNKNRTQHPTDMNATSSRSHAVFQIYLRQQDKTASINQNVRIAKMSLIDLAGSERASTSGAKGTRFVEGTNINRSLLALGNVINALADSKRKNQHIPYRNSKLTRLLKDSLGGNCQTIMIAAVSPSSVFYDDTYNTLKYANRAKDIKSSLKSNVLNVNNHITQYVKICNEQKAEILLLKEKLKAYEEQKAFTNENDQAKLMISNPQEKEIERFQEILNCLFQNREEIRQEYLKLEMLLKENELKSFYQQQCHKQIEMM
T1 sequence (P02550 whole entry partner): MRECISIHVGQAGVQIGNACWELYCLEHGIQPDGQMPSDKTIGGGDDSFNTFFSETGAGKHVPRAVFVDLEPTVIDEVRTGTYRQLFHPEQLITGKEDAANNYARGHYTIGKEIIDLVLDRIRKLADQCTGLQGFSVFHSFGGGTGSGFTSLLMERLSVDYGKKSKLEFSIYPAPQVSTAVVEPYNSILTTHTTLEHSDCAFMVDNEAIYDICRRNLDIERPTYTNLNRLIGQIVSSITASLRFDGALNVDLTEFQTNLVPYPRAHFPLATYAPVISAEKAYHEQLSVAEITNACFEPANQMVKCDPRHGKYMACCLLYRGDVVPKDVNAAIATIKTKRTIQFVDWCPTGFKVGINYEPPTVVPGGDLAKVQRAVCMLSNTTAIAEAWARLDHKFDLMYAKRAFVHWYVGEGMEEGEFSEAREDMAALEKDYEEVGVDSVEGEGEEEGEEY
T1 sequence (P02554 whole entry partner): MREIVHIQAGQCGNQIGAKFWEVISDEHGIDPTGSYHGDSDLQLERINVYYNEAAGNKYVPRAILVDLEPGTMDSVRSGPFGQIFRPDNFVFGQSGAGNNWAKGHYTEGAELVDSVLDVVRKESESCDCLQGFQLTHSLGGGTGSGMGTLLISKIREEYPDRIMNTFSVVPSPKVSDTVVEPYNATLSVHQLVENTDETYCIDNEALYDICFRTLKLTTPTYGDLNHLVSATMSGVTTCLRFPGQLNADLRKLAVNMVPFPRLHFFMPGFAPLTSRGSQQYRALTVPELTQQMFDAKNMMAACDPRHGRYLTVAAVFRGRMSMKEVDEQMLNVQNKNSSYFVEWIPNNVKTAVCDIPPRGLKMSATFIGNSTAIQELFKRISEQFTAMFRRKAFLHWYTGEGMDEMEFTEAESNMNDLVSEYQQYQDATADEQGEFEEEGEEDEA
In words: KIF18A enzyme assay (microtubule-stimulated ATPase activity, ADP-Glo). To be noted: 30 nM KIF18A, 75 μM ATP, 30 μg/mL pig microtubules; read-out: Inhibitory activity against KIF18A IC50. In kind it is biochemical. The method in brief:
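Buffer 15 mM Tris pH 7.5, 10 mM MgCl2, 0.01% Pluronic F-68, 1 μM paclitaxel, 30 μg/mL pig microtubules; reactions at room temperature. IC50 from inhibition relative to DMSO.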
On the technique in general: ADP-Glo first removes unused ATP, then detects ADP through luciferase.
With `C[C@H](CO)NS(=O)(=O)c1cc(N2CCC3(CC2)CC3)c(C(=O)Nc2ccc(OCF)c(N3CCO[C@H](C)C3)n2)cn1` [Compound 512], the IC50 was not above 100 nM. With `O=C(Nc1ccc(NS(=O)(=O)CCO)cc1N1CCC2(CC1)CC2)c1ccc(OCF)c(N2CCC(F)(F)CC2)c1` [Compound 513] the figure was not above 100 nM; with `C[C@@H]1CN(c2cc(C(=O)Nc3ccc(NS(=O)(=O)CCO)cc3N3CCC4(CC3)CC4)ccc2OCF)CCO1` [Compound 514], not above 100 nM.

In the case of `C[C@H]1CN(c2cc(C(=O)Nc3ccc(NS(=O)(=O)CCO)cc3N3CCC4(CC3)CC4)ccc2OCF)CCO1` [Compound 515], the IC50 is not above 100 nM. The same measure for `O=C(Nc1ccc(NS(=O)(=O)CCO)cc1N1CCC2(CC1)CC2)c1ccc(OCF)c(N2CC(F)(F)C2)c1` [Compound 516]: not above 100 nM; for `O=C(Nc1ccc(NS(=O)(=O)CCO)cc1N1CCC2(CC1)CC2)c1ccc(OCF)c(OCCC(F)(F)F)c1` [Compound 517]: not above 100 nM; for `O=C(Nc1ccc(NS(=O)(=O)CCO)cc1N1CCC2(CC1)CC2)c1ccc(OCF)c(N2CCC3(CC3)C2)c1` [Compound 518]: not above 100 nM.

`O=C(Nc1ccc(NS(=O)(=O)CCO)cc1N1CCC2(CC1)CC2)c1ccc(OCF)c(OC2CCC2)c1` [Compound 519]: the concentration for half-maximal inhibition (IC50) is not above 100 nM.

For `CC1(F)CCN(c2cc(C(=O)Nc3ccc(NS(=O)(=O)CCO)cc3N3CCC4(CC3)CC4)ccc2OCF)C1` (centres unmarked) [Compound 520], the half-inhibitory concentration (IC50) is not above 100 nM. The same measure for `O=C(Nc1ccc(NS(=O)(=O)CCO)cc1N1CCC2(CC1)CC2)c1ccc(OCF)c(N2CCC(F)CC2)c1` [Compound 521]: not above 100 nM; for `O=C(Nc1ccc(NS(=O)(=O)CCO)cc1N1CCC2(CC1)CC2)c1ccc(OCF)c(N2CC3CC3C2)c1` (centres unmarked) [Compound 522]: not above 100 nM. The same measure for `CC(C)(CO)Nc1cc(C(=O)Nc2ccc(NS(=O)(=O)CCO)cc2N2CCC3(CC2)CC3)ccc1OCF` [Compound 523]: not above 100 nM. The same measure for `O=C(Nc1ccc(NS(=O)(=O)CCO)cc1N1CCC2(CC1)CC2)c1ccc(OCF)c(N2CCOCC2)c1` [Compound 524]: not above 100 nM; for `C[C@@H](CO)S(=O)(=O)Nc1ccc(NC(=O)c2ccc(OCF)c(N3CCC(F)(F)CC3)c2)c(N2CCC3(CC2)CC3)c1` [Compound 525]: not above 100 nM.

Consider `C[C@H](CO)S(=O)(=O)Nc1ccc(NC(=O)c2ccc(OCF)c(N3CCC(F)(F)CC3)c2)c(N2CCC3(CC2)CC3)c1` [Compound 526], for which the IC50 is not above 100 nM. With `C[C@@H]1CN(c2cc(C(=O)Nc3ccc(NS(=O)(=O)[C@@H](C)CO)cc3N3CCC4(CC3)CC4)ccc2OCF)CCO1` [Compound 527] the figure was not above 100 nM; with `C[C@@H]1CN(c2cc(C(=O)Nc3ccc(NS(=O)(=O)[C@H](C)CO)cc3N3CCC4(CC3)CC4)ccc2OCF)CCO1` [Compound 528], not above 100 nM. The same measure for `O=C(Nc1ccc(S(=O)(=O)NCCO)cc1N1CCC2(CC1)CC2)c1ccc(OCF)c(N2CCC(F)(F)CC2)c1` [Compound 529]: 100 to 500 nM; for `C[C@@H]1CN(c2cc(C(=O)Nc3ccc(S(=O)(=O)NCCO)cc3N3CCC4(CC3)CC4)ccc2OCF)CCO1` [Compound 530]: 100 to 500 nM. With `C[C@H]1CN(c2cc(C(=O)Nc3ccc(S(=O)(=O)NCCO)cc3N3CCC4(CC3)CC4)ccc2OCF)CCO1` [Compound 531] the figure was 100 to 500 nM. Take `O=C(Nc1ccc(S(=O)(=O)NCCO)cc1N1CCC2(CC1)CC2)c1ccc(OCF)c(N2CC(F)(F)C2)c1` [Compound 532]: the half-inhibitory concentration (IC50) was 100 to 500 nM. With `O=C(Nc1ccc(S(=O)(=O)NCCO)cc1N1CCC2(CC1)CC2)c1ccc(OCF)c(OCCC(F)(F)F)c1` [Compound 533] the figure was 100 to 500 nM. With `O=C(Nc1ccc(S(=O)(=O)NCCO)cc1N1CCC2(CC1)CC2)c1ccc(OCF)c(N2CCC3(CC3)C2)c1` [Compound 534] the figure was 100 to 500 nM; with `O=C(Nc1ccc(S(=O)(=O)NCCO)cc1N1CCC2(CC1)CC2)c1ccc(OCF)c(OC2CCC2)c1` [Compound 535], 100 to 500 nM; with `CC1(F)CCN(c2cc(C(=O)Nc3ccc(S(=O)(=O)NCCO)cc3N3CCC4(CC3)CC4)ccc2OCF)C1` (centres unmarked) [Compound 536], 100 to 500 nM.

With `O=C(Nc1ccc(S(=O)(=O)NCCO)cc1N1CCC2(CC1)CC2)c1ccc(OCF)c(N2CCC(F)CC2)c1` [Compound 537], the concentration for half-maximal inhibition (IC50) is 100 to 500 nM. With `O=C(Nc1ccc(S(=O)(=O)NCCO)cc1N1CCC2(CC1)CC2)c1ccc(OCF)c(N2CC3CC3C2)c1` (centres unmarked) [Compound 538] the figure was 100 to 500 nM; with `CC(C)(CO)Nc1cc(C(=O)Nc2ccc(S(=O)(=O)NCCO)cc2N2CCC3(CC2)CC3)ccc1OCF` [Compound 539], 100 to 500 nM. With `O=C(Nc1ccc(S(=O)(=O)NCCO)cc1N1CCC2(CC1)CC2)c1ccc(OCF)c(N2CCOCC2)c1` [Compound 540] the figure was 100 to 500 nM; with `C[C@@H](CO)NS(=O)(=O)c1ccc(NC(=O)c2ccc(OCF)c(N3CCC(F)(F)CC3)c2)c(N2CCC3(CC2)CC3)c1` [Compound 541], 100 to 500 nM. With `C[C@H](CO)NS(=O)(=O)c1ccc(NC(=O)c2ccc(OCF)c(N3CCC(F)(F)CC3)c2)c(N2CCC3(CC2)CC3)c1` [Compound 542] the figure was 100 to 500 nM; with `C[C@@H]1CN(c2cc(C(=O)Nc3ccc(S(=O)(=O)N[C@@H](C)CO)cc3N3CCC4(CC3)CC4)ccc2OCF)CCO1` [Compound 543], 100 to 500 nM; with `C[C@H](CO)NS(=O)(=O)c1ccc(NC(=O)c2ccc(OCF)c(N3CCO[C@H](C)C3)c2)c(N2CCC3(CC2)CC3)c1` [Compound 544], 100 to 500 nM. Consider `O=C(Nc1ccc(NS(=O)(=O)CCO)cc1N1CCC2(CC1)CC2)c1ccc(OCF)c(N2CCC(F)(F)CC2)n1` [Compound 545], for which the half-inhibitory concentration (IC50) was not above 100 nM. The same measure for `C[C@@H]1CN(c2nc(C(=O)Nc3ccc(NS(=O)(=O)CCO)cc3N3CCC4(CC3)CC4)ccc2OCF)CCO1` [Compound 546]: not above 100 nM. The same measure for `C[C@H]1CN(c2nc(C(=O)Nc3ccc(NS(=O)(=O)CCO)cc3N3CCC4(CC3)CC4)ccc2OCF)CCO1` [Compound 547]: not above 100 nM; for `O=C(Nc1ccc(NS(=O)(=O)CCO)cc1N1CCC2(CC1)CC2)c1ccc(OCF)c(N2CC(F)(F)C2)n1` [Compound 548]: not above 100 nM; for `O=C(Nc1ccc(NS(=O)(=O)CCO)cc1N1CCC2(CC1)CC2)c1ccc(OCF)c(OCCC(F)(F)F)n1` [Compound 549]: not above 100 nM.

Turning to `O=C(Nc1ccc(NS(=O)(=O)CCO)cc1N1CCC2(CC1)CC2)c1ccc(OCF)c(N2CCC3(CC3)C2)n1` [Compound 550], the IC50 was not above 100 nM. With `O=C(Nc1ccc(NS(=O)(=O)CCO)cc1N1CCC2(CC1)CC2)c1ccc(OCF)c(OC2CCC2)n1` [Compound 551] the figure was not above 100 nM; with `CC1(F)CCN(c2nc(C(=O)Nc3ccc(NS(=O)(=O)CCO)cc3N3CCC4(CC3)CC4)ccc2OCF)C1` (centres unmarked) [Compound 552], not above 100 nM; with `O=C(Nc1ccc(NS(=O)(=O)CCO)cc1N1CCC2(CC1)CC2)c1ccc(OCF)c(N2CCC(F)CC2)n1` [Compound 553], not above 100 nM.

In the case of `O=C(Nc1ccc(NS(=O)(=O)CCO)cc1N1CCC2(CC1)CC2)c1ccc(OCF)c(N2CC3CC3C2)n1` (centres unmarked) [Compound 554], the IC50 is not above 100 nM.

`CC(C)(CO)Nc1nc(C(=O)Nc2ccc(NS(=O)(=O)CCO)cc2N2CCC3(CC2)CC3)ccc1OCF` [Compound 555]: the half-inhibitory concentration (IC50) is not above 100 nM.

For `O=C(Nc1ccc(NS(=O)(=O)CCO)cc1N1CCC2(CC1)CC2)c1ccc(OCF)c(N2CCOCC2)n1` [Compound 556], the half-inhibitory concentration (IC50) was not above 100 nM.

Consider `C[C@@H](CO)S(=O)(=O)Nc1ccc(NC(=O)c2ccc(OCF)c(N3CCC(F)(F)CC3)n2)c(N2CCC3(CC2)CC3)c1` [Compound 557], for which the IC50 is not above 100 nM. For `C[C@H](CO)S(=O)(=O)Nc1ccc(NC(=O)c2ccc(OCF)c(N3CCC(F)(F)CC3)n2)c(N2CCC3(CC2)CC3)c1` [Compound 558], the concentration for half-maximal inhibition (IC50) was not above 100 nM. Consider `C[C@@H]1CN(c2nc(C(=O)Nc3ccc(NS(=O)(=O)[C@@H](C)CO)cc3N3CCC4(CC3)CC4)ccc2OCF)CCO1` [Compound 559], for which the concentration for half-maximal inhibition (IC50) is not above 100 nM. The same measure for `C[C@@H]1CN(c2nc(C(=O)Nc3ccc(NS(=O)(=O)[C@H](C)CO)cc3N3CCC4(CC3)CC4)ccc2OCF)CCO1` [Compound 560]: not above 100 nM; for `O=C(Nc1ccc(S(=O)(=O)NCCO)cc1N1CCC2(CC1)CC2)c1ccc(OCF)c(N2CCC(F)(F)CC2)n1` [Compound 561]: 100 to 500 nM; for `C[C@@H]1CN(c2nc(C(=O)Nc3ccc(S(=O)(=O)NCCO)cc3N3CCC4(CC3)CC4)ccc2OCF)CCO1` [Compound 562]: 100 to 500 nM. For `C[C@H]1CN(c2nc(C(=O)Nc3ccc(S(=O)(=O)NCCO)cc3N3CCC4(CC3)CC4)ccc2OCF)CCO1` [Compound 563], the IC50 fell in the range of 100 to 500 nM. On to `O=C(Nc1ccc(S(=O)(=O)NCCO)cc1N1CCC2(CC1)CC2)c1ccc(OCF)c(N2CC(F)(F)C2)n1` [Compound 564], for which the 50% inhibitory concentration (IC50) lay in the range of 100 to 500 nM. On to `O=C(Nc1ccc(S(=O)(=O)NCCO)cc1N1CCC2(CC1)CC2)c1ccc(OCF)c(OCCC(F)(F)F)n1` [Compound 565], for which the IC50 is 100 to 500 nM. The same measure for `O=C(Nc1ccc(S(=O)(=O)NCCO)cc1N1CCC2(CC1)CC2)c1ccc(OCF)c(N2CCC3(CC3)C2)n1` [Compound 566]: 100 to 500 nM. With `O=C(Nc1ccc(S(=O)(=O)NCCO)cc1N1CCC2(CC1)CC2)c1ccc(OCF)c(OC2CCC2)n1` [Compound 567] the figure was 100 to 500 nM. Consider `CC1(F)CCN(c2nc(C(=O)Nc3ccc(S(=O)(=O)NCCO)cc3N3CCC4(CC3)CC4)ccc2OCF)C1` (centres unmarked) [Compound 568], for which the half-inhibitory concentration (IC50) lay within 100 to 500 nM.

As to `O=C(Nc1ccc(S(=O)(=O)NCCO)cc1N1CCC2(CC1)CC2)c1ccc(OCF)c(N2CCC(F)CC2)n1` [Compound 569], the 50% inhibitory concentration (IC50) was 100 to 500 nM. With `O=C(Nc1ccc(S(=O)(=O)NCCO)cc1N1CCC2(CC1)CC2)c1ccc(OCF)c(N2CC3CC3C2)n1` (centres unmarked) [Compound 570] the figure was 100 to 500 nM.

One may read the IC50 as the midpoint of a concentration-inhibition curve.
